Laboratory results as given in patent US20260216220A1, “TREATMENT OF MYELOPEROXIDASE-POSITIVE ANCA-ASSOCIATED VASCULITIS WITH H2S RELEASING COMPOUNDS” (DEBRECENI EGYETEM, priority 2022, published 2026).
Like-named read-outs stand apart in the source and are kept apart here.

Experiments:
neutrophils [1] = assay: Neutrophil phagocytosis of fluorescent Escherichia coli K-12 BioParticles (Vybrant kit); format: cell-based, human; settings: GYY4137 10-100 μM, 2 hours
Protocol: Phagocytosis experiments were carried out with the Vybrant™ Phagocytosis Assay Kit based on manufacturers instruction. Briefly, Fluorescent-labeled Escherichia coli K-12 BioParticles, and trypan blue stock solutions were prepared. […] 1 hour or 5 minutes prior to the addition of the fluorescent BioParticles suspension. After 2 hours the BioParticle solution was removed, 100 μl trypan blue solution was added immediately, and incubated for 1 minute at room temperature. Trypan blue was removed and 100 μl HBSS was added to each well. Fluorescence was measured at the excitation and emission wavelengths of 480 and 520 nm respectively. Samples for microscopy analysis were prepared similarly with the cell number of 2×10^5/well in EZ slide chamber slides.

[2] = system: mouse model of MPO-ANCA vasculitis; assay: ANCA vasculitis mouse model (anti-MPO splenocyte transfer into Rag2−/− mice), kidney histology; format: in vivo; settings: ATB 60 μmol/kg, administered orally (per os)
Protocol: MPO knockout mice were immunized with mouse MPO based on the following protocol. On day 1 200 μl of 20 μg murine MPO (mMPO) or BSA in total with Complete Freud's Adjuvant were injected to MPO KO mice. 30-40 μl were injected to the backfoot footpads and 120-160 μl were injected subcutaneously in the abdominal region. On day 14 20 μg mMPO/BSA were injected IP with incomplete Freud's Adjuvant and on day 28 mice were boosted with 20 μg mMPO/BSA in DPBS buffer IP. 10 days after boost blood was drawn from eye corner under isoflurane anesthesia and antibody titers were checked by anti-MPO ELISA. If titer were low mice were boosted again with 20 μg mMPO or BSA and titer were checked again 7 days later. If titers were appropriate mice were terminated and splenocytes were isolated. […] The remaining red blood cells were lysed with Red Blood Cell Lysis Buffer according to manufacturer's instructions. […] Cells were counted using trypan blue solution, the total cell count varied between 3×10^7 and 6×10^7. Splenocytes derived from 1 mouse were injected into 2 Rag2−/− immunodeficient mice intravenously. […] After 4 weeks antibody titers were checked with anti-MPO ELISA. […]
The percentage of affected glomeruli in treated samples were calculated compared to their control pairs.

[3] = system: PMA activated neutrophils
[4] = system: PMA-activated neutrophils
neutrophils [5] = settings: cited from earlier work
neutrophils [6] = settings: cited from earlier work; remark: listed apart in the source
[7] = upon PMA and bacterial activation

For C=C1[C@@H](C)[C@H]2[C@H](Cc3ccccc3)NC(=O)[C@]23[C@H](OC(C)=O)/C=C/[C@@](C)(O)C(=O)[C@@H](C)C/C=C/[C@H]3[C@@H]1O [cytochalasin D], the “phagocytosis of E. coli Bioparticles (fluorescent microscopy)” value (neutrophils [1]) was “inhibited”.

With COc1ccc2cc(C(C)C(=O)Oc3ccc(C(N)=S)cc3)ccc2c1 (stereo not drawn) [ATB346] the “efficacy on kidney damage in ANCA mouse model” value [2] was “nor proved to be beneficial in reducing kidney damage” and the “efficacy on kidney damage in ANCA mouse model” value ([2]; listed as ATB) was “proved to be inefficient”.

For sodium sulfide, the “H2O2 production by PMA-activated neutrophils (FOX assay)” value [3] is listed as “not affected”, the “β-glucuronidase activity in supernatants (degranulation), PMA activation” value [4] is listed as “no effect on the enzymatic activity” and the neutrophil apoptosis (neutrophils [5]) is listed as “inhibited neutrophil apoptosis”. For the same compound, the oxidative burst (neutrophils [5]) was “promoted oxidative burst”, the “killing of bacteria by neutrophils” value (neutrophils [6]) was “more efficient in killing bacteria” and the neutrophil apoptosis (neutrophils [6]) was “diminished neutrophil apoptosis”.

In the case of N[C@@H](CS)C(=O)O [cysteine], the neutrophil apoptosis (neutrophils [5]; [7]) is listed as “inhibited neutrophil apoptosis” and the oxidative burst (neutrophils [5]; [7]) is listed as “promoted oxidative burst”.

For C=CCSSCC=C [diallyl-disulfide], the neutrophil apoptosis (neutrophils [5]; [7]) is listed as “inhibited neutrophil apoptosis” and the oxidative burst (neutrophils [5]; [7]) is listed as “promoted oxidative burst”.

In the case of C=CCSSSCC=C [diallyl-trisulfide], the neutrophil apoptosis (neutrophils [5]; [7]) is given as “inhibited neutrophil apoptosis” and the oxidative burst (neutrophils [5]; [7]) is given as “promoted oxidative burst”.
